Experimental data published in ChEMBL document CHEMBL1145676, “Isolation of two flavonoids from Tanacetum microphyllum as PMA-induced ear edema inhibitors” (1997).

Columns and labels:
Type in all cases: functional
Mus musculus [1] = assay: Inhibition of PMA-induced ear edema in Swiss mouse at 3 mg/ear after 3 hrs
Mus musculus [2] = assay: Inhibition of PMA-induced ear edema in Swiss mouse at 3 mg/ear after 5 hrs
Mus musculus [3] = assay: Inhibition of PMA-induced ear edema in Swiss mouse at 3 mg/ear after 1 hr

Row | Structure (SMILES) | inhibition (INH) (Mus musculus [1]) | inhibition (INH) (Mus musculus [2]) | inhibition (INH) (Mus musculus [3])
1 | COc1ccc2c(c1)c(CC(=O)O)c(C)n2C(=O)c1ccc(Cl)cc1 [INDOMETHACIN] | 38.6% | 51.2% | 47.3%
2 | COc1ccc(-c2oc3cc(O)c(OC)c(O)c3c(=O)c2OC)cc1 [SANTIN] | 76.3% | 81.1% | 80.5%
3 | COc1ccc(-c2oc3cc(O)cc(O)c3c(=O)c2OC)cc1 [ERMANIN] | 71.1% | 78.3% | 95.1%
